Key:
Assay in all cases: area over the GR curve, 72 h; higher = more effect;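 further: Dye Drop or Deep Dye Drop imaging of viable cells in 384-well plates (Hoechst nuclei, LIVE/DEAD dye), nine half-log doses, GR normalized to DMSO controls and time-zero plates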
AU565 = system: AU565
BT474 = system: BT474
HCC1187 = system: HCC1187
HCC1395 = system: HCC1395
HCC1569 = system: HCC1569
HCC202 = system: HCC202
HS578T = system: HS578T
MCF7 = system: MCF7
MDAMB231 = system: MDAMB231
PDX1258 = system: PDX1258
PDXHCI002 = system: PDXHCI002
T47D = system: T47D

| SMILES | area over the GR curve (AU565) | area over the GR curve (BT474) | area over the GR curve (HCC1187) | area over the GR curve (HCC1395) | area over the GR curve (HCC1569) | area over the GR curve (HCC202) | area over the GR curve (HS578T) | area over the GR curve (MCF7) | area over the GR curve (MDAMB231) | area over the GR curve (PDX1258) | area over the GR curve (PDXHCI002) | area over the GR curve (T47D) | area over the GR curve (HCC1395; main component drawn) | area over the GR curve (HS578T; main component drawn) | area over the GR curve (MCF7; main component drawn) | area over the GR curve (MDAMB231; main component drawn) | area over the GR curve (PDX1258; main component drawn) | area over the GR curve (PDXHCI002; main component drawn) | area over the GR curve (T47D; main component drawn) |
| --- | --- | --- | --- | --- | --- | --- | --- | --- | --- | --- | --- | --- | --- | --- | --- | --- | --- | --- | --- |
| C[C@@H]1COCCN1c1cc(C2([S@](C)(=N)=O)CC2)nc(-c2cc[nH]c3nccc2-3)n1 [AZD6738] (max 10 µM) | 0.0383 GR | 0.0277 GR | 0.249 GR | 0.194 GR | 0.053 GR | 0.0023 GR | 0.0772 GR | 0.179 GR | -0.0233 GR | 0.0598 GR | 0.0278 GR | -0.205 GR | – | – | – | – | – | – | – |
| NC(=O)Nc1cc(-c2cccc(F)c2)sc1C(=O)N[C@H]1CCCNC1 [AZD7762] (max 10 µM) | 0.338 GR | 0.0464 GR | 0.776 GR | 0.857 GR | 0.772 GR | 0.652 GR | 0.863 GR | 0.597 GR | 0.527 GR | 0.909 GR | 0.694 GR | -0.0211 GR | – | – | – | – | – | – | – |
| Cc1nc(NC(=O)N2CCC[C@H]2C(N)=O)sc1-c1ccnc(C(C)(C)C(F)(F)F)c1 [Alpelisib/BYL719] (max 10 µM) | 0.472 GR | 0.468 GR | 0.0302 GR | 0.023 GR | 0.0913 GR | 0.351 GR | 0.0905 GR | 0.326 GR | 0.0895 GR | 0.0534 GR | 0.063 GR | 0.455 GR | – | – | – | – | – | – | – |
| CN(C)C/C=C/C(=O)Nc1ccc(O[C@@H]2CCC[C@@H](Nc3ncc(Cl)c(-c4c[nH]c5ccccc45)n3)C2)cc1 [BSJ-01-175] (max 10 µM) | 1.06 GR | 0.826 GR | 1.08 GR | 1.01 GR | 0.907 GR | 0.685 GR | 1.07 GR | 1.19 GR | 0.991 GR | 1.3 GR | 0.906 GR | 0.537 GR | – | – | – | – | – | – | – |
| CC(=O)c1c(C)c2cnc(Nc3ccc(N4CCN(CCOCCOCCOCCNC(=O)COc5cccc6c5C(=O)N(C5CCC(=O)NC5=O)C6=O)CC4)cn3)nc2n(C2CCCC2)c1=O (centres undefined) [BSJ-03-123] (max 10 µM) | 0.34 GR | 0.464 GR | -0.0405 GR | 0.323 GR | 0.183 GR | 0.221 GR | 0.298 GR | 0.306 GR | 0.353 GR | 0.0283 GR | 0.246 GR | 0.746 GR | – | – | – | – | – | – | – |
| CC(C)Nc1cc(-c2c[nH]c(C(=O)N[C@H](CO)c3cccc(Cl)c3)c2)c(Cl)cn1 [BVD523] (max 10 µM) | 0.061 GR | -0.0171 GR | -0.297 GR | 0.259 GR | -0.026 GR | 0.174 GR | 0.316 GR | 0.192 GR | 0.232 GR | 0.149 GR | 0.168 GR | 0.185 GR | – | – | – | – | – | – | – |
| Cc1c(N)nc([C@H](CC(N)=O)NC[C@H](N)C(N)=O)nc1C(=O)N[C@H](C(=O)N[C@H](C)[C@@H](O)[C@H](C)C(=O)N[C@H](C(=O)NCCc1nc(-c2nc(C(=O)NCCC[S+](C)C)cs2)cs1)[C@@H](C)O)[C@@H](OC1OC(CO)C(O)C(O)C1OC1OC(CO)C(O)C(OC(N)=O)C1O)c1cnc[nH]1 (some centres undefined) [Bleomycin] (max 10 µM) | – | – | – | – | – | – | – | – | – | – | – | – | 0.607 GR | 0.446 GR | 0.555 GR | 0.132 GR | 0.295 GR | 0.272 GR | 0.462 GR |
| Nc1cc(C(F)(F)F)c(-c2cc(N3CCOCC3)nc(N3CCOCC3)n2)cn1 [Buparlisib/NVP-BKM120] (max 10 µM) | 0.662 GR | 0.53 GR | 0.425 GR | 0.308 GR | 0.298 GR | 0.371 GR | 0.376 GR | 0.503 GR | 0.275 GR | 0.245 GR | 0.229 GR | 0.482 GR | – | – | – | – | – | – | – |
| COc1cc2nccc(Oc3ccc(NC(=O)C4(C(=O)Nc5ccc(F)cc5)CC4)cc3)c2cc1OC [Cabozantinib] (max 10 µM) | -0.0067 GR | -0.109 GR | 0.39 GR | 0.0651 GR | 0.0157 GR | -0.0223 GR | 0.134 GR | 0.107 GR | 0.141 GR | 0.0204 GR | 0.0362 GR | 0.0578 GR | – | – | – | – | – | – | – |
| COc1cc2c(Oc3ccc4[nH]c(C)cc4c3F)ncnc2cc1OCCCN1CCCC1 [Cediranib/AZD2171] (max 10 µM) | -0.0924 GR | -0.139 GR | 0.195 GR | 0.223 GR | -0.0292 GR | 0.0677 GR | 0.394 GR | 0.0756 GR | 0.116 GR | 0.0493 GR | 0.255 GR | 0.122 GR | – | – | – | – | – | – | – |
| Cc1cc(Nc2ncc(Cl)c(Nc3ccccc3S(=O)(=O)C(C)C)n2)c(OC(C)C)cc1C1CCNCC1 [Ceritinib/LDK378] (max 10 µM) | 0.0682 GR | -0.229 GR | 0.168 GR | 0.215 GR | 0.124 GR | 0.119 GR | 0.305 GR | 0.457 GR | 0.344 GR | 0.199 GR | 0.503 GR | 0.312 GR | – | – | – | – | – | – | – |
| N.N.[Cl][Pt][Cl] [Cisplatin] (max 10 µM) | – | – | – | 0.386 GR | – | – | 0.235 GR | 0.0631 GR | 0.15 GR | 0.155 GR | 0.201 GR | 0.214 GR | – | – | – | – | – | – | – |
| Cc1nc(Nc2ncc(C(=O)Nc3c(C)cccc3Cl)s2)cc(N2CCN(CCO)CC2)n1 [Dasatinib] (max 10 µM) | 0.155 GR | 0.695 GR | 0.618 GR | 0.598 GR | 0.483 GR | 0.779 GR | 0.71 GR | 0.483 GR | 0.647 GR | 0.714 GR | 0.376 GR | 0.193 GR | – | – | – | – | – | – | – |
| COc1cccc2c1C(=O)c1c(O)c3c(c(O)c1C2=O)C[C@@](O)(C(=O)CO)C[C@@H]3O[C@H]1C[C@H](N)[C@H](O)[C@H](C)O1 [Doxorubicin] (max 3.162 µM) | 0.604 GR | 0.578 GR | 1.08 GR | 0.637 GR | 0.492 GR | 0.358 GR | 0.801 GR | 0.636 GR | 0.818 GR | 0.754 GR | 0.969 GR | 0.919 GR | – | – | – | – | – | – | – |
| COc1cc([C@@H]2c3cc4c(cc3[C@@H](O[C@@H]3O[C@@H]5CO[C@@H](C)O[C@H]5[C@H](O)[C@H]3O)[C@H]3COC(=O)[C@H]23)OCO4)cc(OC)c1O [Etoposide] (max 10 µM) | – | – | – | 0.389 GR | – | – | 0.377 GR | 0.499 GR | 0.298 GR | 0.394 GR | 0.488 GR | 0.666 GR | – | – | – | – | – | – | – |
| CO[C@H]1C[C@@H]2CC[C@@H](C)[C@@](O)(O2)C(=O)C(=O)N2CCCC[C@H]2C(=O)O[C@H]([C@H](C)C[C@@H]2CC[C@@H](OCCO)[C@H](OC)C2)CC(=O)[C@H](C)/C=C(\C)[C@@H](O)[C@@H](OC)C(=O)[C@H](C)C[C@H](C)/C=C/C=C/C=C/1C [Everolimus] (max 10 µM) | 0.553 GR | 0.898 GR | 0.287 GR | 0.555 GR | 0.349 GR | 0.499 GR | 0.527 GR | 0.564 GR | 0.225 GR | 0.307 GR | -0.0896 GR | 0.616 GR | – | – | – | – | – | – | – |
| CC[C@@]1(O)C(=O)OCc2c1cc1n(c2=O)Cc2cc3c(CN(C)C)c(O)ccc3nc2-1 [Topotecan] (max 10 µM) | – | – | – | 1.08 GR | – | – | 1.02 GR | 0.854 GR | 0.704 GR | 0.867 GR | 1.02 GR | 0.959 GR | – | – | – | – | – | – | – |

Reference: the supplement of paper PMC9663587
